The values below come from ChEMBL document CHEMBL5579829, “Discovery of a potent CDKs/FLT3 PROTAC with enhanced differentiation and proliferation inhibition for AML” (Eur J Med Chem, 2024).

Assay [1] concerns the target T1, Protein cereblon/Cyclin-dependent kinase 2 (Homo sapiens, UniProt P24941+Q96SW2). Briefly: Protac activity at CRBN/CDK2 in human HL-60 cells assessed as induction of CDK2 degradation by Western blot analysis. The assay is classed as cell-based.
Assay [2] has as its system HL-60. Briefly: Antiproliferative activity against human HL-60 cells measured after 1 to 3 days by CCK-8 assay. The class given is functional, cell-based. In general terms: Tetrazolium dyes change colour on reduction, which living cells bring about.
Assay [3] deals with T1, Protein cereblon/Cyclin-dependent kinase 2. Briefly: Protac activity at CRBN/CDK2 in human HL-60 cells assessed as induction of CDK2 degradation by Western blot analysis relative to control. The class given is cell-based.
The target in assay [4] is von Hippel-Lindau disease tumor suppressor/Receptor-type tyrosine-protein kinase FLT3 (Homo sapiens, UniProt P36888+P40337). Briefly: Protac activity at VHL/FLT3-ITD (unknown origin) assessed as induction of FLT3 degradation.
von Hippel-Lindau disease tumor suppressor/Receptor-type tyrosine-protein kinase FLT3, sequence (P36888 whole entry, looked up, stated change not applied): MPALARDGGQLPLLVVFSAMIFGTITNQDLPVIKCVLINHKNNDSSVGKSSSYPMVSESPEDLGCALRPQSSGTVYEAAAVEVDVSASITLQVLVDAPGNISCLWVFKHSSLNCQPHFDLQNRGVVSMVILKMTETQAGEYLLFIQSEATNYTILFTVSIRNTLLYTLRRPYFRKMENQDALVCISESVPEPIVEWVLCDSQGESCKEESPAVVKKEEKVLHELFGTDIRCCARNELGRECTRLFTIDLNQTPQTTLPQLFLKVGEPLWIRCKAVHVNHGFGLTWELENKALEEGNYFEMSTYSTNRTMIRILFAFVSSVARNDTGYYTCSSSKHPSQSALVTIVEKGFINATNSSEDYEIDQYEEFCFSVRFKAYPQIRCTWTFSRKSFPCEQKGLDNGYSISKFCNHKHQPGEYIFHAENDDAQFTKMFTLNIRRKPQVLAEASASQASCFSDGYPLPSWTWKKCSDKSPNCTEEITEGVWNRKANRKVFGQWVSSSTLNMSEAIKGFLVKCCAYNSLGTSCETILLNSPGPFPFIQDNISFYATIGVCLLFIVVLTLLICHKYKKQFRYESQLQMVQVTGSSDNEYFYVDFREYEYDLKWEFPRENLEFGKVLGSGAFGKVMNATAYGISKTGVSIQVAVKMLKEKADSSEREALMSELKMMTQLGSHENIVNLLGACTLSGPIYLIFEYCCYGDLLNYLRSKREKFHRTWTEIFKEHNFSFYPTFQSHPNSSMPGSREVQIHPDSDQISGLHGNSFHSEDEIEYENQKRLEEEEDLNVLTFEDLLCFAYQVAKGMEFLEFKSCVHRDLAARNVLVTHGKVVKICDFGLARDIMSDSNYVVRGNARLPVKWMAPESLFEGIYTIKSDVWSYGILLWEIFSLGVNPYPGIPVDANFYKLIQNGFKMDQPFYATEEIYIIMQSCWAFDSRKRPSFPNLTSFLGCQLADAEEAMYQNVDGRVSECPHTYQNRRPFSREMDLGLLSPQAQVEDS
von Hippel-Lindau disease tumor suppressor/Receptor-type tyrosine-protein kinase FLT3, sequence (P40337 whole entry, looked up, stated change not applied): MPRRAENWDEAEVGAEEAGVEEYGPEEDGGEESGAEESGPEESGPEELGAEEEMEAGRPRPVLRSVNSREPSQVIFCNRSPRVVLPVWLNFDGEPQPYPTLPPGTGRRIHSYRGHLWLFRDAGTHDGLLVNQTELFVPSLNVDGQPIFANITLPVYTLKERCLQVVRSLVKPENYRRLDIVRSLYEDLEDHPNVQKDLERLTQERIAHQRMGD
The target of assay [5] is Protein cereblon/Cyclin-dependent kinase 6 (Homo sapiens, UniProt Q00534+Q96SW2). Briefly: Protac activity at CRBN/CDK6 in human MDA-MB-231 cells assessed as induction of CDK6 degradation measured after 18 hrs by Western blot analysis. The class given is cell-based. On the technique in general: A western blot detects proteins with antibodies after separation by electrophoresis.
Protein cereblon/Cyclin-dependent kinase 6, sequence (Q00534 whole entry): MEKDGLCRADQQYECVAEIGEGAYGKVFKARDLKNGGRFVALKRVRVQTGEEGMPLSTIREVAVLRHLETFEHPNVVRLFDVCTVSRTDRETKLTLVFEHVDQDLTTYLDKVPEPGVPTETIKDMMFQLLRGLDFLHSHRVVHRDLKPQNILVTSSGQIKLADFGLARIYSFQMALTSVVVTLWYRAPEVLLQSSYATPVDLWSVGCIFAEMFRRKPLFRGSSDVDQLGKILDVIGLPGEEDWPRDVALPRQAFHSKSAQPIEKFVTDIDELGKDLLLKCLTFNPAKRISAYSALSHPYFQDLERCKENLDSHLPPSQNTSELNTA
Protein cereblon/Cyclin-dependent kinase 6, sequence (Q96SW2 whole entry): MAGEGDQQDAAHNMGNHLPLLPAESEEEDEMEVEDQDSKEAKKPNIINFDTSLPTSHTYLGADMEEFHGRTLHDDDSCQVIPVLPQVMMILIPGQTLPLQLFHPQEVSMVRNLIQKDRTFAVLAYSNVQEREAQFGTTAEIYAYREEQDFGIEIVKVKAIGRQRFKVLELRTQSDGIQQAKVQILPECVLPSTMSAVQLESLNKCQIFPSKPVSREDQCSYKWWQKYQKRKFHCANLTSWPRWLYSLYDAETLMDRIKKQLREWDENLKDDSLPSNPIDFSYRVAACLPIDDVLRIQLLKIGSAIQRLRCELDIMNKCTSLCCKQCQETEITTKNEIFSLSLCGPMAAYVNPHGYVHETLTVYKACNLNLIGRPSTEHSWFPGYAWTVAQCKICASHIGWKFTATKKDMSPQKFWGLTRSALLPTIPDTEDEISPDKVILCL

Assay [6] concerns the target Protein cereblon/Cyclin-dependent kinase 4 (Homo sapiens, UniProt P11802+Q96SW2). Briefly: Protac activity at CRBN/CDK4 in human MDA-MB-231 cells assessed as induction of CDK4 degradation measured after 18 hrs by Western blot analysis. The assay is classed as cell-based.
Assay [7] has as its system HL-60. Briefly: Induction of pro-differentiation of human HL-60 cells assessed as CD11b expression at 500 nM measured after 5 days by immunostaining-based flow cytometry (reference value: 10.08 to 10.33%). As to conditions: time 5 day. The assay is classed as functional. (In general: Flow cytometry measures light scatter and fluorescence of single cells or particles in a stream.)

The target of assay [8] is T1, Protein cereblon/Cyclin-dependent kinase 2. Briefly: Protac activity at CRBN/CDK2 in human Kasumi 1 cells assessed as induction of CDK2 degradation measured after 48 hrs by Western blot analysis. The class given is cell-based.
Assay [9] deals with HL-60. Briefly: Induction of pro-differentiation of human HL-60 cells assessed as CD11b expression at 500 nM measured after 3 days by immunostaining-based flow cytometry (reference value: 8.32 to 10.55%). The assay is classed as functional. As to conditions: time 3 day.
The target in assay [10] is T1, Protein cereblon/Cyclin-dependent kinase 2. Briefly: Protac activity at CRBN/CDK2 in human OVCAR-8 cells assessed as induction of CDK2 degradation measured after 6 hrs by Western blot analysis. The assay is classed as cell-based.
Assay [11] addresses Protein cereblon/Cyclin-dependent kinase 9 (Homo sapiens, UniProt P50750+Q96SW2). Briefly: Protac activity at CRBN/CDK9 in human OVCAR-8 cells assessed as induction of CDK9 degradation measured after 6 hrs by Western blot analysis. The assay is classed as cell-based.

Some results are limits rather than exact numbers.

Protein cereblon/Cyclin-dependent kinase 4, sequence (P11802 whole entry): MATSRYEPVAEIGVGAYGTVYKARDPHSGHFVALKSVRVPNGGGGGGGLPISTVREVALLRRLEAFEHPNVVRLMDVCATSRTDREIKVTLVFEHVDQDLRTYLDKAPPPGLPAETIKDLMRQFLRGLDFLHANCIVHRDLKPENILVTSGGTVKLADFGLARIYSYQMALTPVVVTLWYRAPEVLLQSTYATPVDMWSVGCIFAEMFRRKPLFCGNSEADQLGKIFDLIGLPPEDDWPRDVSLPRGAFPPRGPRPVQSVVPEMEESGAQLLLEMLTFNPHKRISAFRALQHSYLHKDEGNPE
Protein cereblon/Cyclin-dependent kinase 4, sequence (Q96SW2 whole entry): as the sequence (Q96SW2 whole entry) above
Protein cereblon/Cyclin-dependent kinase 9, sequence (P50750 whole entry): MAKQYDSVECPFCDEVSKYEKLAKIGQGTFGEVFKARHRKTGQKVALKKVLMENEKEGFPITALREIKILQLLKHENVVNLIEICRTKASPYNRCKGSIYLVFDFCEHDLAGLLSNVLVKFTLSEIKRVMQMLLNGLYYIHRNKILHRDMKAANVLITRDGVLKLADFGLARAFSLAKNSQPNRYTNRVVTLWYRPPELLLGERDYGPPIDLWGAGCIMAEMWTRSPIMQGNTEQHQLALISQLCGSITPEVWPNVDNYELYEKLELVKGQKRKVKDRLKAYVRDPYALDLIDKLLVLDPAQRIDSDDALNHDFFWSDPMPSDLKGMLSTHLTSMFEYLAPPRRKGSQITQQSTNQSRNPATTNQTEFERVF
Protein cereblon/Cyclin-dependent kinase 9, sequence (Q96SW2 whole entry): as the sequence (Q96SW2 whole entry) above

The DC50 is the concentration giving 50% degradation. By IC50 is commonly meant the concentration needed to halve the response being measured. Low readings indicate greater potency, high ones weaker potency. Broadly, the Emax is the greatest response seen or fitted, relative to the assay's reference. With `O=C1CCC(N2C(=O)c3ccc(N4CC(CN5CCC(CCN6CCC(NC(=O)c7n[nH]cc7NC(=O)c7c(Cl)cccc7Cl)CC6)CC5)C4)cc3C2=O)C(=O)N1` (stereo not drawn), the 50% degradation concentration (DC50) in assay [1] worked out at 11.2 nM. In addition, the IC50 in the assay on HL-60 [2] came to 11.5 nM. For the same molecule, the Emax in assay [3] came to 65.8%.

`O=C1CCC(N2C(=O)c3ccc(N4CCC(CN5CCC(N6CCC(NC(=O)c7n[nH]cc7NC(=O)c7c(Cl)cccc7Cl)CC6)CC5)C4)cc3C2=O)C(=O)N1` (stereo not drawn): in assay [1], the DC50 is above 100 nM. Besides, the maximal response (Emax) in [3] was 28.9%.

Regarding `O=C1CCC(N2C(=O)c3ccc(N4CCC(C(=O)N5CCC(NC(=O)c6n[nH]cc6NC(=O)c6c(Cl)cccc6Cl)CC5)CC4)cc3C2=O)C(=O)N1` (stereo not drawn), the 50% degradation concentration (DC50) in assay [1] is 93.3 nM. For the same molecule, the Emax in assay [3] amounted to 59.3%.

For `O=C1CCC(N2C(=O)c3ccc(N4CCC(CN5CCC(CCN6CCC(NC(=O)c7n[nH]cc7NC(=O)c7c(Cl)cccc7Cl)CC6)CC5)C4)cc3C2=O)C(=O)N1` (stereo not drawn), the DC50 in [1] was above 100 nM. Besides, the Emax in assay [3] amounted to 38.9%.

In the case of `CCc1nc(C(N)=O)c(Nc2ccc(N3CCN(CCC4CCN(CC(=O)N[C@H](C(=O)N5C[C@H](O)C[C@H]5C(=O)N[C@@H](C)c5ccc(-c6scnc6C)cc5)C(C)(C)C)CC4)CC3)c(OC)c2)nc1NC1CCOCC1`, the half-maximal degradation concentration (DC50) in [4] was determined as 7.62 nM.

Regarding `CC(=O)c1c(C)c2cnc(Nc3ccc(N4CCN(Cc5cn(CCCCCC(=O)Nc6cccc7c6C(=O)N(C6CCC(=O)NC6=O)C7=O)nn5)CC4)cn3)nc2n(C2CCCC2)c1=O` (stereo not drawn), the half-maximal degradation concentration (DC50) is 34.1 nM in assay [5] and 12.9 nM in [6].

Turning to `O=C1CCC(N2C(=O)c3ccc(N4CCC(CN5CCC(NC(=O)c6n[nH]cc6NC(=O)c6c(Cl)cccc6Cl)CC5)C4)cc3C2=O)C(=O)N1` (stereo not drawn), the DC50 in assay [1] was 4.71 nM. In the assay with HL-60 [2], this molecule showed a half-inhibitory concentration (IC50) of 40.8 nM. In assay [3], the Emax worked out at 67.3%.

Turning to `O=C1CCC(N2C(=O)c3ccc(N4CCC(CN5CCC(CN6CCC(NC(=O)c7n[nH]cc7NC(=O)c7c(Cl)cccc7Cl)CC6)CC5)CC4)cc3C2=O)C(=O)N1` (stereo not drawn), the 50% degradation concentration (DC50) in [1] is above 100 nM. Further, the Emax in [3] came out at 31.8%.

Consider `O=C1CCC(N2C(=O)c3ccc(N4CCC(CCN5CCC(NC(=O)c6n[nH]cc6NC(=O)c6c(Cl)cccc6Cl)CC5)CC4)cc3C2=O)C(=O)N1` (stereo not drawn), for which the DC50 in assay [1] amounted to 26.5 nM. In addition, the half-inhibitory concentration (IC50) with HL-60 [2] amounted to 24.1 nM. Moreover, the maximal response (Emax) in assay [3] worked out at 54.9%.

In the case of `O=C1CCC(N2C(=O)c3ccc(N4CC(CN5CCC(CN6CCC(NC(=O)c7n[nH]cc7NC(=O)c7c(Cl)cccc7Cl)CC6)CC5)C4)cc3C2=O)C(=O)N1` (stereo not drawn), the half-maximal degradation concentration (DC50) in [1] was above 100 nM. Besides, in assay [3], the Emax came out at 9.07%.

As for `O=C(NC1CCNCC1)c1n[nH]cc1NC(=O)c1c(Cl)cccc1Cl` [AT-7519], the 50% inhibitory concentration (IC50) in the assay with HL-60 [2] came to 135 nM.

Regarding `O=C1CCC(N2C(=O)c3ccc(N4CCC(CN5CCC(NC(=O)c6n[nH]cc6NC(=O)c6c(Cl)cccc6Cl)CC5)CC4)cc3C2=O)C(=O)N1` (stereo not drawn), in assay [1], the 50% degradation concentration (DC50) amounted to 1.17 nM. In the assay on HL-60 [2], this molecule returned an IC50 of 44.6 nM. Besides, the Emax in assay [3] is 75.8%.

Regarding `O=C1CCC(N2C(=O)c3ccc(N4CCC(CN5CCC(N6CCC(NC(=O)c7n[nH]cc7NC(=O)c7c(Cl)cccc7Cl)CC6)CC5)CC4)cc3C2=O)C(=O)N1` (stereo not drawn), the DC50 in assay [1] is above 100 nM.

`CN1CCN(Cc2ccc(NC(=O)c3n[nH]cc3Nc3ncnc4[nH]ccc34)cc2)CC1` gave an IC50 with HL-60 [2] of 89.3 nM.

With `O=C1CCC(N2C(=O)c3ccc(N4CC(N5CCC(NC(=O)c6n[nH]cc6NC(=O)c6c(Cl)cccc6Cl)CC5)C4)cc3C2=O)C(=O)N1` (stereo not drawn), the DC50 in assay [1] was 26.1 nM. The molecule further displayed an IC50 with HL-60 [2] of 17.8 nM. Also, in assay [3], the Emax came out at 72.8%.

On to `O=C1CCC(N2C(=O)c3ccc(N4CC(CN5CCN(Cc6ccc(NC(=O)c7n[nH]cc7Nc7ncnc8[nH]ccc78)cc6)CC5)C4)cc3C2=O)C(=O)N1` (stereo not drawn), for which, in assay [1], the 50% degradation concentration (DC50) stood at 1.23 nM. This molecule came in with an IC50 in the assay on HL-60 [2] of 13.4 nM. Besides, the maximum response (Emax) in assay [3] was 58.8%.

For the molecule `O=C1CCC(N2C(=O)c3ccc(N4CCC(C(=O)N5CCC(N6CCC(NC(=O)c7n[nH]cc7NC(=O)c7c(Cl)cccc7Cl)CC6)CC5)CC4)cc3C2=O)C(=O)N1` (stereo not drawn), the DC50 in assay [1] was above 100 nM.

For `O=C1CCC(N2C(=O)c3ccc(N4CCC(CN5CCC(CCN6CCC(NC(=O)c7n[nH]cc7NC(=O)c7c(Cl)cccc7Cl)CC6)CC5)CC4)cc3C2=O)C(=O)N1` (stereo not drawn), the half-maximal degradation concentration (DC50) in assay [1] is above 100 nM. Further, in assay [3], the maximum response (Emax) was determined as 43.5%.

With `Cc1ccsc1C(=O)n1nc(Nc2ccc(S(=O)(=O)NCCOCc3cn(CCOCCOCCNc4cccc5c4C(=O)N(C4CCC(=O)NC4=O)C5=O)nn3)cc2)nc1N` (stereo not drawn), the Activity in the assay with HL-60 [7] is reported as 34.38%; in the assay on HL-60 [9], 26.84%. Besides, the DC50 in assay [8] worked out at 61 nM. Also, in the assay on HL-60 [2], the 50% inhibitory concentration (IC50) was above 1000 nM.

For `O=C1CCC(N2C(=O)c3ccc(N4CC(CN5CCC(NC(=O)c6n[nH]cc6NC(=O)c6c(Cl)cccc6Cl)CC5)C4)cc3C2=O)C(=O)N1` (stereo not drawn), in assay [1], the DC50 was determined as 13 nM. Also, inhibition with HL-60 [2] was half-maximal at 20.4 nM (IC50). In addition, the Emax in [3] came out at 63.2%.

`O=C1CCC(N2C(=O)c3ccc(N4CCC(CN5CCN(Cc6ccc(NC(=O)c7n[nH]cc7Nc7ncnc8[nH]ccc78)cc6)CC5)C4)cc3C2=O)C(=O)N1` (stereo not drawn): the DC50 in assay [1] stood at 1.63 nM. In the assay with HL-60 [2], this molecule registered an IC50 of 11.7 nM. The Emax in [3] came to 76.1%.

Regarding `O=C1CCC(N2C(=O)c3ccc(N4CC(CN5CCC(N6CCC(NC(=O)c7n[nH]cc7NC(=O)c7c(Cl)cccc7Cl)CC6)CC5)C4)cc3C2=O)C(=O)N1` (stereo not drawn), the DC50 in [1] was above 100 nM. The maximal effect (Emax) in assay [3] turned out to be 43.3%.

As to `O=C(CCC(=O)N1CCN(Cc2ccc(NC(=O)c3n[nH]cc3Nc3ncnc4[nH]ccc34)cc2)CC1)NCCNc1cccc2c1C(=O)N(C1CCC(=O)NC1=O)C2=O` (stereo not drawn), the 50% degradation concentration (DC50) in assay [10] was determined as 62 nM; in assay [11], 33 nM.

As to `O=C1CCC(N2C(=O)c3ccc(N4CCC(C(=O)N5CCN(Cc6ccc(NC(=O)c7n[nH]cc7Nc7ncnc8[nH]ccc78)cc6)CC5)CC4)cc3C2=O)C(=O)N1` (stereo not drawn), the 50% degradation concentration (DC50) in assay [1] was above 100 nM. In assay [3], the maximal effect (Emax) came out at 47.9%.

As for `O=C1CCC(N2C(=O)c3ccc(N4CCC(CN5CCC(CN6CCC(NC(=O)c7n[nH]cc7NC(=O)c7c(Cl)cccc7Cl)CC6)CC5)C4)cc3C2=O)C(=O)N1` (stereo not drawn), the DC50 in assay [1] was above 100 nM.

Regarding `O=C1CCC(N2C(=O)c3ccc(N4CC(C(=O)N5CCC(N6CCC(NC(=O)c7n[nH]cc7NC(=O)c7c(Cl)cccc7Cl)CC6)CC5)C4)cc3C2=O)C(=O)N1` (stereo not drawn), the DC50 in assay [1] was above 100 nM.

With `O=C1CCC(N2C(=O)c3ccc(N4CCC(N5CCC(NC(=O)c6n[nH]cc6NC(=O)c6c(Cl)cccc6Cl)CC5)C4)cc3C2=O)C(=O)N1` (stereo not drawn), the 50% degradation concentration (DC50) in [1] was 7.13 nM. In the assay with HL-60 [2], this molecule came in with an IC50 of 14 nM. In addition, the Emax in assay [3] is 59.1%.

Turning to `O=C1CCC(N2C(=O)c3ccc(N4CC(C(=O)N5CCC(NC(=O)c6n[nH]cc6NC(=O)c6c(Cl)cccc6Cl)CC5)C4)cc3C2=O)C(=O)N1` (stereo not drawn), the DC50 in [1] is above 100 nM. Further, the maximal response (Emax) in [3] was determined as 34.2%.

In the case of `O=C1CCC(N2C(=O)c3ccc(N4CCC(N5CCC(NC(=O)c6n[nH]cc6NC(=O)c6c(Cl)cccc6Cl)CC5)CC4)cc3C2=O)C(=O)N1` (stereo not drawn), the half-maximal degradation concentration (DC50) in assay [1] was 2.8 nM. In the assay with HL-60 [2], this molecule displayed a half-maximal inhibitory concentration (IC50) of 24.4 nM. The Emax in assay [3] came to 79.2%.
